pIC50: −log10 of the molar value.
Key:
[1] = test system: panel of tumor cell lines; conditions: cited from earlier work
ESKAPE pathogens = test: Antibacterial screening; assay type: cell-based; conditions: ESKAPE pathogens / bacterial screens
[2] = test system: recombinant RSV encoding Renilla luciferase (rA2-Rluc); test: RSV antiviral assay (Renilla luciferase reporter RSV in A549 cells); assay type: cell-based, respiratory syncytial virus; conditions: for activity against RSV (in words): inhibition of RSV gene expression / viral transcription; for pIC50: rA2-Rluc in A549 cells, 24 h, luciferase activity, read-out: IC50 against RSV
Method: A549 (CCL-185, ATCC) cells were seeded at 1.6×10^4 cells in 100 μl of 5% FBS/1× penicillin-streptomycin/F12 medium per well in 96-well uClear® black plates with clear bottom (Greiner 655090). Cells were infected with 400 PFU/well of a recombinant RSV encoding Renilla luciferase as an additional transcription unit (rA2-Rluc^22) in total volume of 50 μL/well and allowed to adsorb for 1 h. Purified compounds were serially diluted two-fold in triplicate and 50 μL/well of the diluted extracts were added to the infected cells. After further incubation at 37° C. and 5% CO2 for 24 h, the supernatants were removed and cells were lysed using Renilla lysis buffer (Promega). Luciferase activity was measured with the Renilla Luciferase reagent (Promega) and BioTek Synergy Mx microplate luminometer using Gen5 version 2.00.18 software. RSV antiviral effect for test samples was determined by normalizing to DMSO-treated control samples and multiplying by 100 to obtain percent of control. Statistical analysis was performed using GraphPad Prism software version 9.4.1.

Candida strains = test: Antifungal screening; assay type: cell-based; conditions: several Candida strains / fungal screens
MRSA = conditions: cited from earlier work
HIV gene expression = conditions: cited from earlier work

| Compound | antibacterial activity (ESKAPE pathogens) | activity against RSV (in words) [2] | antifungal activity (Candida strains) | also measured |
| --- | --- | --- | --- | --- |
| isosuberitenone B |  |  |  | cytotoxicity against a panel of tumor cell lines [1]: weak cytotoxicity |
| CC(=O)OC1CC2(C)C=C(C3CC(=O)C(C)=CC3O)CCC2C2(C)CCCC(C)(C)C12 (stereo not shown) [Compound 10, suberitenone A] | inactive | active | inactive | pIC50 [2]: 5.10 |
| oxaspirosuberitenone |  |  |  | antibacterial activity against MRSA (MRSA): mild antibacterial activity |
| 19-episuberitenone B |  |  |  | cytotoxicity against a panel of tumor cell lines [1]: weak cytotoxicity |
| CC(=O)OC1CC2(C)C(O)C(C3CC(=O)C(C)=CC3O)=CCC2C2(C)CCCC(C)(C)C12 (stereo not shown) [Compound 3, Suberitenone F] | inactive | active | inactive |  |
| CC(=O)OC1CC2(C)CC(O)(C3CC(=O)C(C)=CC3O)CCC2C2(C)CCCC(C)(C)C12 (stereo not shown) [Compound 11, suberitenone B] | inactive | active | inactive | pIC50 [2]: 5.46 |
| anvilone A |  |  |  | HIV gene expression (HIV gene expression): turned on HIV gene expression |
| CC(=O)OC1CC2(C)C=C3C4CC(=O)C(C)(CC4O)C3CC2C2(C)CCCC(C)(C)C12 (stereo not shown) [Compound 1, Neosuberitenone A] |  |  |  | viral inhibitory effects at 25 μg/mL ([2]; 25 μg/mL): did not show any viral inhibitory effects |

From US20250352505A1, “COMPOSITIONS AND METHODS OF TREATING RESPIRATORY SYNCYTIAL VIRUS” (University of South Florida, priority 2023, published 2025)
